Measurements as given in patent US11260023B2, “Topical compositions containing rofecoxib and methods of making and using the same” (BRIORI BIOTECH, LLC, priority 2020, dated 2022).
Values joined by “and” are separate entries in the source; they are usually repeats but may differ in a detail not shown here. Equal entries are not always repeated.

Test: Solubility of rofecoxib in solvent systems containing two or three solvents; synergistic or antagonist effect
Type: physicochemical
Procedure: The solubility of rofecoxib in solvent systems containing two or three solvents was determined. In solvent systems containing two solvents, […] of each solvent was added to 100 mg of rofecoxib. In solvent systems containing three solvents, […] of each solvent was added to 100 mg of rofecoxib. The samples were mixed using the protocol for solvent systems containing single solvents above. Serial dilutions of the rofecoxib solvent solutions were made (1:100 v:v), (1:1000 v/v), and (1:2000 v/v). Solvents without rofecoxib were diluted with methanol and used to blank a Beckman DU-7400 spectrophotometer. The absorbance of the samples was determined at a wavelength of 279.1 nm. The concentration of rofecoxib dissolved in the solvent was calculated using Beer's Law. The ability of the solvent systems to synergistically dissolve rofecoxib or antagonistically dissolve rofecoxib (reduce the ability of rofecoxib to dissolve was determined) according to the protocol below. The contribution for solubility of a single solvent in a two-mixture solution was calculated to be ½ of the calculated solubility of rofecoxib in one gram of excipient. Likewise, the contribution for solubility of a three-mixture was calculated to be ⅓ of the calculated solubility of rofecoxib in one gram of excipient. The expected solubility for a mixture is the addition of the contribution of each excipient. […] The percent change between the expected solubility and actual solubility was determined. […] Similar calculations are utilized for solvent systems containing three or more solvents.

Structure (SMILES): CS(=O)(=O)c1ccc(C2=C(c3ccccc3)C(=O)OC2)cc1 [Rofecoxib]
- % Change (observed vs expected solubility) (in DI + PGD): 123.9%
- Expected Solubility (in DI + PGD): 23.04 mg/g
- Observed Solubility (in DI + PGD): 28.54 mg/g
- % Change (observed vs expected solubility) (in EA + AC): 79.1%
- Expected Solubility (in EA + AC): 14.52 mg/g
- Observed Solubility (in EA + AC): 11.49 mg/g
- % Change (observed vs expected solubility) (in EA + AT): 82.6%
- Expected Solubility (in EA + AT): 2.91 mg/g
- Observed Solubility (in EA + AT): 2.40 mg/g
- % Change (observed vs expected solubility) (in EA + BA): 94.1%
- Expected Solubility (in EA + BA): 12.52 mg/g
- Observed Solubility (in EA + BA): 11.78 mg/g
- % Change (observed vs expected solubility) (in EA + DGME): 55.4%
- Expected Solubility (in EA + DGME): 7.29 mg/g
- Observed Solubility (in EA + DGME): 4.04 mg/g
- % Change (observed vs expected solubility) (in EA + DI): 62.0%
- Expected Solubility (in EA + DI): 22.32 mg/g
- Observed Solubility (in EA + DI): 13.84 mg/g
- % Change (observed vs expected solubility) (in EA + DIA): 85.7%
- Expected Solubility (in EA + DIA): 3.77 mg/g
- Observed Solubility (in EA + DIA): 3.23 mg/g
- % Change (observed vs expected solubility) (in EA + DMSO): 122.9%
- Expected Solubility (in EA + DMSO): 74.55 mg/g
- Observed Solubility (in EA + DMSO): 91.63 mg/g
- % Change (observed vs expected solubility) (in EA + DS): 88.0%
- Expected Solubility (in EA + DS): 3.67 mg/g
- Observed Solubility (in EA + DS): 3.22 mg/g
- % Change (observed vs expected solubility) (in EA + IPTD): 41.5%
- Expected Solubility (in EA + IPTD): 2.75 mg/g
- Observed Solubility (in EA + IPTD): 1.14 mg/g
- % Change (observed vs expected solubility) (in EA + M24D): 110.4%
- Expected Solubility (in EA + M24D): 3.05 mg/g
- Observed Solubility (in EA + M24D): 3.36 mg/g
- % Change (observed vs expected solubility) (in EA + MP): 75.3%
- Expected Solubility (in EA + MP): 101.75 mg/g
- Observed Solubility (in EA + MP): 76.59 mg/g
- % Change (observed vs expected solubility) (in EA + OA): 38.5%
- Expected Solubility (in EA + OA): 2.95 mg/g
- Observed Solubility (in EA + OA): 1.14 mg/g
- % Change (observed vs expected solubility) (in EA + PC): 103.9%
- Expected Solubility (in EA + PC): 27.47 mg/g
- Observed Solubility (in EA + PC): 28.53 mg/g
- % Change (observed vs expected solubility) (in EA + PEG): 120.0%
- Expected Solubility (in EA + PEG): 9.32 mg/g
- Observed Solubility (in EA + PEG): 11.19 mg/g
- % Change (observed vs expected solubility) (in EA + PGD): 109.1% and 100.3%
- Expected Solubility (in EA + PGD): 6.22 mg/g
- Observed Solubility (in EA + PGD): 6.78 mg/g and 6.23 mg/g
- % Change (observed vs expected solubility) (in EA + PPG): 156.1%
- Expected Solubility (in EA + PPG): 2.90 mg/g
- Observed Solubility (in EA + PPG): 4.53 mg/g
- % Change (observed vs expected solubility) (in EA + PS20): 107.9%
- Expected Solubility (in EA + PS20): 7.34 mg/g
- Observed Solubility (in EA + PS20): 7.92 mg/g
- % Change (observed vs expected solubility) (in EA + PS80): 105.8%
- Expected Solubility (in EA + PS80): 7.61 mg/g
- Observed Solubility (in EA + PS80): 8.05 mg/g
- % Change (observed vs expected solubility) (in MP + EA): 71.4%
- Expected Solubility (in MP + EA): 107.75 mg/g
- Observed Solubility (in MP + EA): 76.89 mg/g
- % Change (observed vs expected solubility) (in MP + PEG + PGD): 35.17%
- Expected Solubility (in MP + PEG + PGD): 72.69 mg/g
- Expected Solubility (in PC + AC): 36.48 mg/g and 36.5 mg/g
- % Change (observed vs expected solubility) (in PC + AC + MP): 34.18%
- Expected Solubility (in PC + AC + MP): 90.34 mg/g
- % Change (observed vs expected solubility) (in PC + AC + PEG): 123.74%
- Expected Solubility (in PC + AC + PEG): 28.72 mg/g
- Observed Solubility (in PC + AC + PEG): 35.53 mg/g
- % Change (observed vs expected solubility) (in PC + AC + PGD): 200.59% and 129.71% and 114.18%
- Expected Solubility (in PC + AC + PGD): 26.65 mg/g
- Observed Solubility (in PC + AC + PGD): 53.45 mg/g and 34.56 mg/g
- % Change (observed vs expected solubility) (in PC + BA): 99.3%
- Expected Solubility (in PC + BA): 34.49 mg/g
- Observed Solubility (in PC + BA): 34.26 mg/g
- % Change (observed vs expected solubility) (in PC + BA + AC): 134.75%
- Expected Solubility (in PC + BA + AC): 30.85 mg/g
- Observed Solubility (in PC + BA + AC): 41.57 mg/g
- % Change (observed vs expected solubility) (in PC + BA + DMSO): 85.64%
- Expected Solubility (in PC + BA + DMSO): 70.86 mg/g
- % Change (observed vs expected solubility) (in PC + BA + MP): 21.30%
- Expected Solubility (in PC + BA + MP): 88.99 mg/g
- % Change (observed vs expected solubility) (in PC + BA + PEG): 63.48%
- Expected Solubility (in PC + BA + PEG): 27.37 mg/g
- % Change (observed vs expected solubility) (in PC + BA + PGD): 84.91%
- Expected Solubility (in PC + BA + PGD): 25.30 mg/g
- % Change (observed vs expected solubility) (in PC + MP): 69.3%
- Expected Solubility (in PC + MP): 123.72 mg/g
- Observed Solubility (in PC + MP): 85.76 mg/g
- % Change (observed vs expected solubility) (in PC + MP + PEG): 46.39%
- Expected Solubility (in PC + MP + PEG): 86.86 mg/g
- % Change (observed vs expected solubility) (in PC + MP + PGD): 21.70%
- Expected Solubility (in PC + MP + PGD): 84.79 mg/g
- % Change (observed vs expected solubility) (in PC + PEG + PGD): 153.76%
- Expected Solubility (in PC + PEG + PGD): 23.17 mg/g
- Observed Solubility (in PC + PEG + PGD): 35.62 mg/g
- % Change (observed vs expected solubility) (in PC + PGD): 123.0% and 97.8%
- Expected Solubility (in PC + PGD): 28.18 mg/g
- Observed Solubility (in PC + PGD): 34.66 mg/g and 27.55 mg/g
- % Change (observed vs expected solubility) (in PEG + DGME): 119.7%
- Expected Solubility (in PEG + DGME): 11.11 mg/g
- Observed Solubility (in PEG + DGME): 13.30 mg/g
- % Change (observed vs expected solubility) (in PEG + EA): 150.3%
- Expected Solubility (in PEG + EA): 9.32 mg/g
- Observed Solubility (in PEG + EA): 14.00 mg/g
- % Change (observed vs expected solubility) (in PEG + PGD): 124.5% and 120.8%
- Expected Solubility (in PEG + PGD): 10.04 mg/g
- Observed Solubility (in PEG + PGD): 12.50 mg/g and 12.13 mg/g
